Measurements as given in PubChem BioAssay (NCI).
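Protocol summary: plate cells (96-well), add compound at 5 concentrations, incubate 48 h, interpolate endpoints linearly. The concentration for full growth arrest is given as TGI.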

Experiments:
Assay in all cases: NCI-60 cell line screen, 48 h
SN12C renal = system: SN12C renal
DU-145 prostate = system: DU-145 prostate
SK-OV-3 ovarian = system: SK-OV-3 ovarian
EKVX NSCLC = system: EKVX NSCLC
MDA-N = system: MDA-N
RPMI-8226 leukemia = system: RPMI-8226 leukemia
CCRF-CEM leukemia = system: CCRF-CEM leukemia
OVCAR-3 ovarian = system: OVCAR-3 ovarian
MALME-3M melanoma = system: MALME-3M melanoma
HL-60(TB) leukemia = system: HL-60(TB) leukemia
TK-10 renal = system: TK-10 renal

Row | Structure (SMILES) | TGI (SN12C renal) [µM] | TGI (DU-145 prostate) [µM] | TGI (SK-OV-3 ovarian) [µM] | TGI (EKVX NSCLC) [µM] | TGI (MDA-N) [µM] | TGI (RPMI-8226 leukemia) [µM] | TGI (CCRF-CEM leukemia) [µM] | TGI (OVCAR-3 ovarian) [µM] | TGI (MALME-3M melanoma) [µM] | TGI (HL-60(TB) leukemia) [µM] | TGI (TK-10 renal) [µM]
1 | Cc1ccc(N=Nc2ccc(O)c(CN(C)C)c2)cc1C | > 100 | 95.8 | > 100 | 61.8 | > 100 | 90.1 | 76.5 | > 100 | 34.8 | 26.1 | 43.3
2 | O=C1c2ccccc2C(=O)[C@@]23O[C@@]12C1(Oc2cccc4cccc(c24)O1)[C@@H]1O[C@@H]1[C@@H]3O | 26.1 | 33.2 | 28.6 | 54.2 | 32 | > 23.1 | > 38.7 | 12.6 | 30.3 | 4.89 | 15.9
3 | Oc1cc(-c2ccccc2)cn2c1nc1ccccc12 | > 100 | > 31.6 | 6.09 | > 100 | > 100 | > 100 | > 100 | > 100 | > 100 | 9.4 | > 100
4 | CC(C)(C)c1cc(C2NCCO2)cc(C(C)(C)C)c1O (stereo not drawn) | > 100 | > 100 | > 100 | > 100 | > 100 | > 100 | > 100 | > 100 | > 100 | > 100 | > 100
5 | COc1cc(NC(C)=O)ccc1C(=O)N/N=C/c1ccc(Cl)cc1Cl | 64.6 | > 100 | > 100 | > 100 | 72.7 | > 100 | > 100 | > 100 | > 100 | > 100 | –
6 | COc1cc(/C=C2\C[C@H]3[C@@H]4CC=C5C=C(N6CCCC6)CC[C@]5(C)[C@H]4CC[C@]3(C)C2=O)cc(OC)c1OC | 12.1 | 12.8 | 22.1 | 16.5 | 4.2 | > 28 | > 100 | 4.07 | 5.61 | 17.8 | 21.4
7 | CCOP(=O)(CCCC(O)CNc1cc(Cl)nc(N)n1)OCC (stereo not drawn) | > 100 | > 100 | > 100 | > 100 | > 100 | > 100 | > 100 | > 100 | > 100 | > 100 | > 100
8 | c1cc(Sc2nc(Sc3ccncc3)nc(Sc3ccncc3)n2)ccn1 | > 100 | > 100 | > 100 | > 100 | > 100 | > 100 | > 100 | > 100 | > 100 | > 100 | > 100
9 | N#CCCCC[N+]12CN3CN(CN(C3)C1)C2 | > 100 | > 100 | > 100 | > 100 | > 100 | > 100 | > 100 | > 100 | > 100 | > 100 | > 100
10 | CC(C)(C)C(=O)C(C(=O)C(C)(C)C)C(=O)C(C)(C)C | > 100 | > 100 | > 100 | > 100 | > 100 | > 100 | > 100 | > 100 | > 100 | > 100 | > 100
11 | C=C(C)C1Cc2c(cc(O)c3c(=O)c4c(oc23)C(O)Oc2cc(OC)c(OC)cc2-4)O1 (stereo not drawn) | > 10 | > 10 | – | > 10 | > 10 | > 10 | > 10 | > 10 | > 10 | > 10 | > 10
12 | CC(=O)Nc1ccc(NC(=O)c2c(Cl)c(Cl)c(Cl)c(Cl)c2-c2nc3ccccc3[nH]2)cc1 | > 100 | > 100 | > 100 | > 100 | > 100 | 71 | > 100 | > 100 | > 100 | 67.6 | –
13 | Nc1c2c(=O)[nH]c(=O)c2c(N)c2c(=O)c3ccccc3c(=O)c12 | 3.17 | 3.95 | 32.9 | 9.55 | 0.448 | 8.53 | > 26.7 | 4.31 | 0.581 | > 100 | 40.7
14 | CC(C)=CCNc1ncnc2nc[nH]c12 | > 100 | > 100 | > 100 | > 100 | > 100 | > 100 | > 100 | > 100 | > 100 | > 100 | > 100
15 | Cc1c(C)c2c(c(N)c1C#N)C(=O)N(Nc1ccccc1)C2=O | > 100 | > 100 | – | > 100 | > 100 | > 100 | > 100 | > 100 | > 100 | > 100 | > 100
16 | Cc1ccc(NC(=O)CSc2nc(C)nc3c2sc(=S)n3-c2ccccc2)cc1 | > 10 | > 10 | > 10 | > 10 | > 10 | > 10 | > 10 | > 10 | > 10 | > 10 | > 10
17 | CC(C)=NN/C(=N\S(=O)(=O)c1ccc(C)cc1)Nc1ccc(Cl)cc1 | > 100 | > 100 | – | > 100 | > 100 | > 100 | > 100 | > 100 | > 100 | > 100 | > 100
18 | COc1ccc(/C=C/C(=O)/C=C/c2ccc(OC)cc2)cc1 | > 100 | > 100 | > 100 | > 100 | 49 | 55.9 | > 100 | > 100 | > 100 | 53.7 | > 100
